# Measured values: article PMC3038380 (Bioorganic & Medicinal Chemistry, 2010)
# Tests used:
# [1] = NMR chemical shift titration with DPC-d38; assay type: binding; details: pH 5.0, 1.0 mM octanoic acid or 1.14 mM ghrelin
# [2] = free C8 fatty acid; cited from earlier work
smiles,measurement,setting,value
CCCCCCCC(=O)O [octanoic acid],unitary Gibbs free energy ΔGu0 of binding to DPC micelles,[1],-8.6 kcal/mol
same,free energy for the transfer from aqueous into a hydrophobic environment,[2],-1.5 kcal/mol
